Results on 3 molecules are retold here after patent US20140242606A1, “PROBE FOR iFRET AND USE THEREOF” (KOREA RESEARCH INSTITUTE OF BIOSCIENCE AND BIOTECHNOLOGY, priority 2011, published 2014).

Molecules are shown by their SMILES.

A short description of data set [1]: Fluorescence of the iFRET probe alone. Type of data set: physicochemical. The note with it: for fluorescence emission wavelength of probe alone: excitation / UV irradiation at 280 nm. From the text: After excitation at 260, 280, 340, and 360 nm, the emitted fluorescence spectra were examined. […]
(§1) As in FIG. 23 showing the result of using the compound of Chemical Formula XXV as a probe for iFRET, the probe itself emitted low fluorescence (blue line) at 430 nm by UV irradiation at 280 nm; the protein (streptavidin) emitted fluorescence (green line) at 340 nm by UV irradiation at 280 nm.
As in FIG. 24 showing the result of using the compound of Chemical Formula XXVI as a fluorescent probe, the probe itself emitted low fluorescence (blue line) at 460 nm by UV irradiation at 280 nm; the protein (streptavidin) emitted fluorescence (green line) at 340 nm by UV irradiation at 280. […] Further, it was confirmed that the fluorescence increasing rate at the above emission wavelength was 600% or more, indicating production of effective iFRET signals. […]

For data set [2], the target named is BSA (bovine serum albumin) (Bos taurus, UniProt P02769). Description: iFRET control of probe XXIV with BSA. Type of data set: binding. The note with it: probe (2 μM) with BSA (200 nM), PBS pH 7.4. The method, then: (§2) The right graph of FIG. 18 is the result of reexamining iFRET signals using Compound XXIV, purified HSP90 protein, and a control group BSA (bovine serum albumin). 2 μM Compound XXIV was used, and HSP90 protein and BSA protein were used at the final concentration of 200 nM. At this time, the used buffer was phosphate buffered saline (PBS; pH 7.4). As shown in the figure, iFRET signals result from compound XXIV and HSP90 protein which are selectively binding.
Sequence of BSA (bovine serum albumin) (P02769 25-607): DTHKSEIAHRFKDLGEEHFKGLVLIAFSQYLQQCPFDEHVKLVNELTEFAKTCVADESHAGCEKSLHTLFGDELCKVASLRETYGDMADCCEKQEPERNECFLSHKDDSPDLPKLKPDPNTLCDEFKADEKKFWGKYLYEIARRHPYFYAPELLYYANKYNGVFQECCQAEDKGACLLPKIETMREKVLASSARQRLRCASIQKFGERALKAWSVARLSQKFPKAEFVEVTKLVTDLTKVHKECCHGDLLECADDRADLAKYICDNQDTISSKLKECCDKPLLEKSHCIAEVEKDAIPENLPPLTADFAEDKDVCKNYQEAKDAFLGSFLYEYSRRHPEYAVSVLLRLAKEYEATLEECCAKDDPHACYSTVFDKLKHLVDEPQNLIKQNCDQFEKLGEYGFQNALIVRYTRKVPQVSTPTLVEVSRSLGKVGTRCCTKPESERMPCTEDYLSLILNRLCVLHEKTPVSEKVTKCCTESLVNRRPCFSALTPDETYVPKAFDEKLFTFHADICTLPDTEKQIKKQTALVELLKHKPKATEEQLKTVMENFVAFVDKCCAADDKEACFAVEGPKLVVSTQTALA
(§3) As a control group, BSA (bovine serum albumin) was used.

The next data set addresses HSP90 protein. Description: Dissociation constant of iFRET probe and HSP90 (double reciprocal plot of fluorescence). In kind it is binding. The note with it: probe concentration fixed, HSP90 at various concentrations. The method, then: FIG. 21 is the result of binding degree of the synthesized Chemical Formula XXIV and HSP90 protein. The core structure used in the synthesis of Chemical Formula XXIV is PU-H64 (J. Med. Chem. 2006, 49, 4953-4960), and this structure binds to HSP90. The iFRET probe used in this experiment is a structure in which a fluorescent nucleus is introduced into PU-H64. In order to examine the actual binding degree of this probe and HSP90 protein, analysis of enzyme kinetics was performed to confirm that its dissociation constant is approximately 160 nM. The concentration of Chemical Formula XXIV as the iFRET probe was fixed and HSP90 was reacted at various concentrations to measure emitted fluorescence intensity. Based on this measured values, the dissociation constant was calculated. The reciprocal of the HSP90 concentration and the reciprocal of the fluorescence value were plotted to calculate the dissociation constant.

In data set [3] the test system is HSP90 (heat shock protein 90) protein. As to the kind of experiment: iFRET detection of HSP90 with probe XXIV. Type of data set: binding. The method, then: Compound XXIV was dissolved in DMSO, and then diluted with distilled water to a final concentration of 2 μM. When Compound XXIV or the protein was present alone, no fluorescence signals were newly observed around 450 nm.
as §2
FIG. 19 is a graph showing iFRET signals detected by using HSP90 protein and Chemical Formula XXIV Selectively binding thereto.
as §3

The next data set has as its system inactive caspase. As to the kind of experiment: iFRET control with inactive caspase. Type of data set: binding. As to conditions: inactive caspase and probe excited at 280 nm.
In another data set the target is T1, active caspase (Homo sapiens, UniProt P42574).
T1 sequence (P42574 29-175 limits assumed): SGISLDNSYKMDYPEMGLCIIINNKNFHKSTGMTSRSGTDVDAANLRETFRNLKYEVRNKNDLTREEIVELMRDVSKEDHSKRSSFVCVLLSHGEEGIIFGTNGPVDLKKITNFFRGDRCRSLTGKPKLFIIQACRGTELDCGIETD
T1 sequence (P42574 176-277 limits assumed): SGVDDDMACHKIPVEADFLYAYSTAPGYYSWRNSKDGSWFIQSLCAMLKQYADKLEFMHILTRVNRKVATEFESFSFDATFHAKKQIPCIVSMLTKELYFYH
Description: iFRET detection of caspase-3 with probe XXIII. In kind it is binding. As to conditions: mixture of probe and active caspase, excitation at 280 nm, versus caspase or probe alone. The source says:
<Detection of Caspase-3 Protein and Test of its Activity Using iFRET Probe of Chemical Formula XXIII>
Chemical Formula XXIII and caspase protein were used to detect iFRET signals.

In a further data set the target is BSA (Bos taurus, UniProt P02769). Description: Target specificity of probe XXVIII against BSA. Type of data set: binding. As to conditions: probe exposed to BSA. The source says:
(§4) In order to examine target specificity of the probe having Chemical Formula XXVIII, the probe was exposed to BSA to examine whether iFRET signals were produced by binding of the probe to BSA. […] Therefore, it was confirmed that the biotin-conjugated iFRET fluorescent probe of the present invention selectively binds to streptavidin to produce iFRET signals.

Data set [4] deals with T2, streptavidin (Streptomyces avidinii, UniProt P22629). Description: FRET efficiency and Forster distance of biotin-conjugated probes. In kind it is binding. The note with it: between iFRET probe and streptavidin. The method, then:
(§5) The quantum yield of each compound was measured in 0.1 M pH 10.0 phosphate buffer. 4-methyl-umbelliferone (ΦF 0.63) was used as a standard material, tryptophan (ΦF=0.12) was used as an FRET donor to calculate the quantum yield. FRET efficiency was calculated based on the results measured in PBS buffer at pH 7.4, and fluorescence was measured using an LS55 fluorescence spectrometer manufactured by Perkin Elmer.

Data set [5] deals with T2, streptavidin. Description: iFRET detection of streptavidin with biotin-conjugated probes. In kind it is binding. The note with it: UV irradiation at 280 nm.
Text: The results of detecting streptavidin using Compounds of Chemical Formulae XXV to XXVIII as probes for iFRET are shown in FIGS. 23 to 26.
as §1
As in FIG. 24 showing the result of using the compound of Chemical Formula XXVI as a fluorescent probe, the probe itself emitted low fluorescence (blue line) at 460 nm by UV irradiation at 280 nm; the protein (streptavidin) emitted fluorescence (green line) at 340 nm by UV irradiation at 280. […] Further, it was confirmed that the fluorescence increasing rate at the above emission wavelength was 600% or more, indicating production of effective iFRET signals.
Because the compound of Chemical Formula XXVII emitted fluorescence at the longer wavelength than the known iFRET probe, signal-to-noise ratio is […] during real-time cell imaging, thereby providing more clear images.
as §4

Data set [6] can be described thus: Quantum yield measurement. Type of data set: physicochemical. As to conditions: 0.1 M pH 10.0 phosphate buffer, standard 4-methyl-umbelliferone. The procedure:
as §5

T2 sequence (P22629 25-183): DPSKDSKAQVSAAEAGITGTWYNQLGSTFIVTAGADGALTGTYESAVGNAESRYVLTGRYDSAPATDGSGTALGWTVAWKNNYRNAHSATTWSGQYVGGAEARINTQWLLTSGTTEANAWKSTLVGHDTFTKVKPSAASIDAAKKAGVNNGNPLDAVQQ
Sequence of BSA (P02769 25-607): as the sequence (P02769 25-607) above

As usually defined, the Kd is the concentration at which binding is half-saturated. A lower Kd goes with higher affinity. For the molecule `Nc1ncnc2c1nc(Sc1cc3c(cc1Br)OCO3)n2CCC(=O)NCCNc1cccc2ccccc12` [Chemical Formula XXIV, 3-(6-amino-8-(6-bromobenzo[1,3]-dioxole-5-ylthio)-9S-purin-9-yl)-N-(2-(naphthalene-1-ylamino)ethyl)propaneamide], the “fluorescence emission wavelength of probe alone” value in data set [1] is on record as “approximately 430 nm”. In addition, the “fluorescence intensity on excitation at 340 nm compared to excitation at 280 nm” value in [1] (probe alone) is listed as “approximately 2 fold”. In [2], the iFRET signals result is listed as “no iFRET signals”. Besides, the Kd on HSP90 protein was approximately 0.16 µM. In addition, in data set [3] (2 μM probe with purified HSP90, DMSO diluted with distilled water), the “iFRET signal around 450 nm” value was “new fluorescence signals were observed”. In data set [3] (mixture of probe and HSP90, excitation at 280 nm, versus HSP90 or probe alone), the “fluorescence at 430 nm of mixture” value is on record as “increased fluorescence”.
Take `CC(C)[C@H](NC(=O)[C@H](CCC(=O)O)NC(=O)[C@H](CC(=O)O)NC(=O)CCC(=O)NCCNc1cccc2ccccc12)C(=O)N[C@H](C=O)CC(=O)O` [Chemical Formula XXIII]: in data set [1], the “fluorescence emission wavelength of probe alone” value is “approximately 445 nm”. The iFRET signals entry in the data set with inactive caspase was “no iFRET signals were observed”. Also, the “increase of fluorescence at 445 nm” value on active caspase is recorded as “approximately 300%”.
Regarding `CN(C)c1ccc2cc(/C=C/C(=O)NCCNC(=O)CCCC[C@@H]3SC[C@@H]4NC(=O)N[C@@H]43)c(=O)oc2c1` [Chemical Formula XXVIII, N-((E)-7-dimethylaminocoumarin-3-acryl)-N′-(biotinyl)ethylenediamide], the iFRET signals entry on BSA was “no signals were observed”. For the same molecule, the “R0 (Fōrster distance)” value on streptavidin [4] worked out at 2.102 nm. Moreover, the “fluorescence / iFRET signal of mixture of probe and streptavidin” value at streptavidin [5] was “iFRET signals produced”. Further, the “Quantum yield (ΦF)” value in data set [6] stood at 0.55.
